Reference: patent US10202361B2, “Pyridazinones as herbicides” (E I DU PONT DE NEMOURS AND COMPANY, priority 2014, dated 2019)

Assays:
Assay in all cases: Test D pre-/postemergence controlled growth environment herbicide test
Assay type in all cases: in vivo
Conditions in all cases: scale 0 to 100
[1] = tested on: Russian thistle (Salsola kali)
From the text: (§1) Seeds of plant species selected from bluegrass (annual bluegrass, Poa annua), blackgrass (Alopecurus myosuroides), canarygrass (Phalaris minor), chickweed (common chickweed, Stellaria media), galium (catchweed bedstraw, Galium aparine), downy bromegrass (Bromus tectorum), field poppy (Papaver rhoeas), field violet (Viola arvensis), foxtail, green (green foxtail, Setaria viridis), deadnettle (henbit deadnettle, Lamium amplexicaule), ryegrass, Italian (Italian ryegrass, Lolium multiflorum), kochia (Kochia scoparia), lambsquarters (Chenopodium album), oilseed rape (Brassica napus), pigweed (Amaranthus retroflexus), chamomile (scentless chamomile, Matricaria inodora), Russian thistle (Salsola kali), speedwell (bird's-eye speedwell, Veronica persica), barley, spring (spring barley, Hordeum vulgare), wheat, spring (spring wheat, Triticum aestivum), buckwheat, wild (wild buckwheat, Polygonum convolvulus), mustard, wild (wild mustard, Sinapis arvensis), oat, wild (wild oat, Avena fatua), radish, wild (wild radish, Raphanus raphanistrum), windgrass (Apera spica-venti), barley, winter (winter barley, Hordeum vulgare), and wheat, winter (winter wheat, Triticum aestivum) were planted into a silt loam soil and treated preemergence with test chemicals formulated in a non-phytotoxic solvent mixture which included a surfactant.
(§2) At the same time, these species were planted in pots containing Redi-Earth® planting medium (Scotts Company, 14111 Scottslawn Road, Marysville, Ohio 43041) comprising spaghnum peat moss, vermiculite, wetting agent and starter nutrients and treated with postemergence applications of the test chemicals formulated in the same manner. Plants ranged in height from 2 to 18 cm (1- to 4-leaf stage). Treated plants and controls were maintained in a controlled growth environment for 14 to 21 d after which time all species were compared to controls and visually evaluated. Plant response ratings, summarized in Table D, are based on a scale of 0 to 100 where 0 is no effect and 100 is complete control. A dash (-) response means no test result.

[2] = tested on: chickweed (common chickweed, Stellaria media)
From the text: as §1, §2

[3] = tested on: field violet (Viola arvensis)
From the text: as §1, §2

[4] = tested on: foxtail, green (green foxtail, Setaria viridis)
From the text: as §1, §2

[5] = tested on: galium (catchweed bedstraw, Galium aparine)
From the text: as §1, §2

kochia (Kochia scoparia) = tested on: kochia (Kochia scoparia)
From the text: as §1, §2

[6] = tested on: oat, wild (wild oat, Avena fatua)
From the text: as §1, §2

[7] = tested on: oilseed rape (Brassica napus)
From the text: as §1, §2

[8] = tested on: pigweed (Amaranthus retroflexus)
From the text: as §1, §2

[9] = tested on: ryegrass, Italian (Italian ryegrass, Lolium multiflorum)
From the text: as §1, §2

[10] = tested on: wheat, winter (winter wheat, Triticum aestivum)
From the text: as §1, §2

Cc1cc(=O)n(-c2ccc(F)cc2)nc1Cc1ccnc(C(F)(F)F)c1 [Compound 1, 2-(4-fluorophenyl)-5-methyl-6-[[2-(trifluoromethyl)-4-pyridinyl]methyl]-3(2H)-pyridazinone]
Plant response rating ([1]; Postemergence, 62 g ai/ha): 20 | Plant response rating ([1]; Postemergence, 250 g ai/ha): 50 | Plant response rating ([1]; Preemergence, 62 g ai/ha): 20 | Plant response rating ([1]; Preemergence, 125 g ai/ha): 100 | Plant response rating ([1]; Preemergence, 250 g ai/ha): 100 | Plant response rating ([1]; Preemergence, 500 g ai/ha): 100 | Plant response rating ([2]; Postemergence, 31 g ai/ha): 30 | Plant response rating ([2]; Postemergence, 62 g ai/ha): 30 | Plant response rating ([2]; Postemergence, 125 g ai/ha): 50 | Plant response rating ([2]; Postemergence, 250 g ai/ha): 50 | Plant response rating ([2]; Postemergence, 500 g ai/ha): 60 | Plant response rating ([2]; Preemergence, 31 g ai/ha): 100 | Plant response rating ([2]; Preemergence, 62 g ai/ha): 100 | Plant response rating ([2]; Preemergence, 125 g ai/ha): 100 | Plant response rating ([2]; Preemergence, 250 g ai/ha): 100 | Plant response rating ([2]; Preemergence, 500 g ai/ha): 100 | Plant response rating ([3]; Postemergence, 31 g ai/ha): 20 | Plant response rating ([3]; Postemergence, 62 g ai/ha): 50 | Plant response rating ([3]; Postemergence, 125 g ai/ha): 75 | Plant response rating ([3]; Postemergence, 250 g ai/ha): 80 | Plant response rating ([3]; Postemergence, 500 g ai/ha): 90 | Plant response rating ([3]; Preemergence, 31 g ai/ha): 60 | Plant response rating ([3]; Preemergence, 62 g ai/ha): 80 | Plant response rating ([3]; Preemergence, 125 g ai/ha): 90 | Plant response rating ([3]; Preemergence, 250 g ai/ha): 98 | Plant response rating ([3]; Preemergence, 500 g ai/ha): 100 | Plant response rating ([4]; Postemergence, 31 g ai/ha): 0 | Plant response rating ([4]; Postemergence, 62 g ai/ha): 0 | Plant response rating ([4]; Postemergence, 125 g ai/ha): 0 | Plant response rating ([4]; Postemergence, 250 g ai/ha): 20 | Plant response rating ([4]; Postemergence, 500 g ai/ha): 70 | Plant response rating ([4]; Preemergence, 31 g ai/ha): 0 | Plant response rating ([4]; Preemergence, 62 g ai/ha): 60 | Plant response rating ([4]; Preemergence, 125 g ai/ha): 100 | Plant response rating ([4]; Preemergence, 250 g ai/ha): 100 | Plant response rating ([4]; Preemergence, 500 g ai/ha): 100 | Plant response rating ([5]; Postemergence, 31 g ai/ha): 30 | Plant response rating ([5]; Postemergence, 62 g ai/ha): 30 | Plant response rating ([5]; Postemergence, 125 g ai/ha): 45 | Plant response rating ([5]; Postemergence, 250 g ai/ha): 70 | Plant response rating ([5]; Postemergence, 500 g ai/ha): 90 | Plant response rating ([5]; Preemergence, 31 g ai/ha): 0 | Plant response rating ([5]; Preemergence, 62 g ai/ha): 10 | Plant response rating ([5]; Preemergence, 250 g ai/ha): 70 | Plant response rating ([5]; Preemergence, 500 g ai/ha): 100 | Plant response rating (kochia (Kochia scoparia); Postemergence, 31 g ai/ha): 15 | Plant response rating (kochia (Kochia scoparia); Postemergence, 62 g ai/ha): 20 | Plant response rating (kochia (Kochia scoparia); Postemergence, 125 g ai/ha): 30 | Plant response rating (kochia (Kochia scoparia); Postemergence, 250 g ai/ha): 50 | Plant response rating (kochia (Kochia scoparia); Postemergence, 500 g ai/ha): 70 | Plant response rating (kochia (Kochia scoparia); Preemergence, 31 g ai/ha): 70 | Plant response rating (kochia (Kochia scoparia); Preemergence, 125 g ai/ha): 80 | Plant response rating (kochia (Kochia scoparia); Preemergence, 250 g ai/ha): 100 | Plant response rating (kochia (Kochia scoparia); Preemergence, 500 g ai/ha): 100 | Plant response rating ([6]; Postemergence, 31 g ai/ha): 10 | Plant response rating ([6]; Postemergence, 62 g ai/ha): 10 | Plant response rating ([6]; Postemergence, 125 g ai/ha): 10 | Plant response rating ([6]; Postemergence, 250 g ai/ha): 10 | Plant response rating ([6]; Postemergence, 500 g ai/ha): 10 | Plant response rating ([6]; Preemergence, 62 g ai/ha): 0 | Plant response rating ([6]; Preemergence, 125 g ai/ha): 15 | Plant response rating ([6]; Preemergence, 250 g ai/ha): 35 | Plant response rating ([6]; Preemergence, 500 g ai/ha): 80 | Plant response rating ([7]; Postemergence, 31 g ai/ha): 35 | Plant response rating ([7]; Postemergence, 62 g ai/ha): 40 | Plant response rating ([7]; Postemergence, 125 g ai/ha): 50 | Plant response rating ([7]; Postemergence, 250 g ai/ha): 75 | Plant response rating ([7]; Postemergence, 500 g ai/ha): 80 | Plant response rating ([7]; Preemergence, 31 g ai/ha): 30 | Plant response rating ([7]; Preemergence, 62 g ai/ha): 30 | Plant response rating ([7]; Preemergence, 125 g ai/ha): 40 | Plant response rating ([7]; Preemergence, 250 g ai/ha): 75 | Plant response rating ([7]; Preemergence, 500 g ai/ha): 98 | Plant response rating ([8]; Postemergence, 31 g ai/ha): 20 | Plant response rating ([8]; Postemergence, 62 g ai/ha): 30 | Plant response rating ([8]; Postemergence, 125 g ai/ha): 30 | Plant response rating ([8]; Postemergence, 250 g ai/ha): 40 | Plant response rating ([8]; Postemergence, 500 g ai/ha): 50 | Plant response rating ([8]; Preemergence, 62 g ai/ha): 20 | Plant response rating ([8]; Preemergence, 125 g ai/ha): 100 | Plant response rating ([8]; Preemergence, 250 g ai/ha): 100 | Plant response rating ([8]; Preemergence, 500 g ai/ha): 100 | Plant response rating ([9]; Postemergence, 31 g ai/ha): 0 | Plant response rating ([9]; Postemergence, 62 g ai/ha): 0 | Plant response rating ([9]; Postemergence, 125 g ai/ha): 5 | Plant response rating ([9]; Postemergence, 250 g ai/ha): 10 | Plant response rating ([9]; Postemergence, 500 g ai/ha): 10 | Plant response rating ([9]; Preemergence, 31 g ai/ha): 0 | Plant response rating ([9]; Preemergence, 62 g ai/ha): 0 | Plant response rating ([9]; Preemergence, 125 g ai/ha): 10 | Plant response rating ([9]; Preemergence, 250 g ai/ha): 20 | Plant response rating ([9]; Preemergence, 500 g ai/ha): 60 | Plant response rating ([10]; Postemergence, 31 g ai/ha): 0 | Plant response rating ([10]; Postemergence, 62 g ai/ha): 0 | Plant response rating ([10]; Postemergence, 125 g ai/ha): 5 | Plant response rating ([10]; Postemergence, 250 g ai/ha): 5 | Plant response rating ([10]; Postemergence, 500 g ai/ha): 10 | Plant response rating ([10]; Preemergence, 31 g ai/ha): 0 | Plant response rating ([10]; Preemergence, 62 g ai/ha): 0 | Plant response rating ([10]; Preemergence, 125 g ai/ha): 10 | Plant response rating ([10]; Preemergence, 250 g ai/ha): 50 | Plant response rating ([10]; Preemergence, 500 g ai/ha): 70
